Patent publication US5560924A, “Medicament containing a 2-arylpropionic acid derivative in nanosol form and its preparation” (priority 1994, dated 1996)

Columns and labels:
[1] = cited from earlier work
[2] = rapid test for determination of the particle surface charge with standard gelatins; type: physicochemical; conditions: rapid test at pH 4.5, standard type A (IEP 9.5) and type B (IEP 3.5) gelatins, 200 bloom
Experimental: In a first rapid test it is determined what charge the precipitated particles have. […] If the particles are, for example, negatively charged, a gelatin is picked which is positively charged under the given pH conditions. This rapid test for the determination of the particle charge has the advantages that it can be carried out without a great outlay in terms of apparatus and time. A time-consuming and inaccurate zeta potential measurement can thus be dispensed with entirely.
At the same dose of the pharmaceutical substance, in the case of the gelatin which is unsuitable in its state of charge a colloidal system will either not form or immediately become unstable or the pharmaceutical substance will flocculate. If the resulting particles are negatively charged, they are stabilized rather by the gelatin solution of Type A, which is positively charged at a pH of 6, than by the solution containing Type B gelatin; in contrast, in this case Type B either will form no colloidal system or the system will immediately destabilize. The flocculation of the particles can be monitored e.g. via a simple turbidity measurement.
Under identical test conditions, the standard type A gelatin (IEP 9.5/200 bloom) yields a briefly stable nanosol.

[3] = cited from earlier work; remark: listed apart in the source

Question: With `CC(C)Cc1ccc(C(C)C(=O)O)cc1` (racemic) [ibuprofen, 2-(4-isobutylphenyl)propionic acid] as the compound, how does the “tmax (time to blood level maximum)” value ([1]; conventional ibuprofen) read?
Answer: Its value is 1 to 2 h.

Question: What about the “time until therapeutic concentrations are achieved” value ([1]; in 2 of 8 subjects investigated) of the same compound?
Answer: Its value is “more than 4 hours”.

Question: For `CC(C(=O)O)c1cccc(C(=O)c2ccccc2)c1` (racemic) [ketoprofen, 2-(3-benzoylphenyl)propionic acid], which “surface charge of the particles” value [2] is on record?
Answer: Its value is “negative surface charge”.

Question: What about the pKa [3] of the same compound?
Answer: The pKa was 5.3.
